Assays:
Population PK analysis = type: in vivo, human; conditions: for V1, final model estimate (RSE%): apparent volume of the central compartment; for V2, final model estimate (RSE%): apparent volume of the peripheral compartment; for BSV in V1, final model CV% (shrink) / BSV in V2, final model CV% (shrink): between-subject variability; for Q, final model estimate (RSE%): intercompartmental clearance; for CL, final model estimate (RSE%): population PK, healthy volunteers and patients, i.v. infusion; for Covariate on CL: CrCL (power), final model estimate (RSE%): power relationship centered on the median; for Proportional Error, final model CV% (shrink): residual variability
[1] = patients; cited from earlier work
[2] = imipenem monotherapy, in vivo animal models; cited from earlier work
[3] = 625 mg q6h for 7 days, healthy adult volunteers; cited from earlier work
[4] = test system: Pseudomonas aeruginosa and Enterobacteriaceae; conditions: HF model; cited from earlier work
[5] = Simulation of upper and lower clinical bounds of exposure; parameters: species or system human

Row | SMILES | V1, final model estimate (RSE%) (Population PK analysis) | V2, final model estimate (RSE%) (Population PK analysis) | BSV in V1, final model CV% (shrink) (Population PK analysis) | BSV in V2, final model CV% (shrink) (Population PK analysis) | Covariate on V1: WT (power), final model estimate (RSE%) (Population PK analysis; body weight) | BSV in V1, bootstrap CV% (Population PK analysis; bootstrap n = 1,000) [CV%] | BSV in V2, bootstrap CV% (Population PK analysis; bootstrap n = 1,000) [CV%] | CL, bootstrap estimate (RSE%) (Population PK analysis; bootstrap n = 1,000) | Covariate on CL: CrCL (power), bootstrap estimate (RSE%) (Population PK analysis; bootstrap n = 1,000) | Covariate on V1: WT (power), bootstrap estimate (RSE%) (Population PK analysis; bootstrap n = 1,000) | Proportional Error, bootstrap CV% (Population PK analysis; bootstrap n = 1,000) [CV%] | Q, bootstrap estimate (RSE%) (Population PK analysis; bootstrap n = 1,000) | V1, bootstrap estimate (RSE%) (Population PK analysis; bootstrap n = 1,000) | V2, bootstrap estimate (RSE%) (Population PK analysis; bootstrap n = 1,000) | Q, final model estimate (RSE%) (Population PK analysis) | CL, final model estimate (RSE%) (Population PK analysis) | Covariate on CL: CrCL (power), final model estimate (RSE%) (Population PK analysis) | Proportional Error, final model CV% (shrink) (Population PK analysis) | other results
1 | C[C@@H](O)[C@H]1C(=O)N2C(C(=O)O)=C(SCCN=CN)C[C@H]12 [imipenem] | 15.83 (3.2) L | 5.84 (4.0) L | 74.4 (7.4) CV% | 35.0 (52.9) CV% | 0.74 (19.1) | 74.2 | 34.8 | 12.53 (2.0) L/hour | 0.46 (8.0) | 0.76 (21.6) | 16.1 | 11.15 (6.7) L/hour | 15.76 (3.4) L | 5.86 (3.9) L | 11.09 (6.5) L/hour | 12.53 (2.0) L/hour | 0.46 (8.1) | 16.1 (19.0) CV% | Covariate on CL: WT (power), final model estimate (RSE%) (Population PK analysis; body weight): 0.33 (30.5); Covariate on CL: WT (power), bootstrap estimate (RSE%) (Population PK analysis; bootstrap n = 1,000): 0.34 (32.2); Covariate on V1: Healthy, bootstrap estimate (RSE%) (Population PK analysis; bootstrap n = 1,000): −0.28 (10.0); Covariate on V1: Healthy, final model estimate (RSE%) (Population PK analysis; proportional change, healthy volunteers vs patients): −0.29 (9.5); concentration lower in peritoneal fluid than in plasma, on average [1]: 25%; fT > MIC required to achieve 1-log kill to 2-log kill [2]: ~ 30%
2 | O=C(NC1CCNCC1)[C@@H]1CC[C@@H]2CN1C(=O)N2OS(=O)(=O)O [relebactam] | 11.08 (2.9) L | 6.41 (3.8) L | 59.5 (18.8) CV% | 41.1 (49.8) CV% | 0.70 (15.8) | 59.4 | 41.0 | 7.02 (2.0) L/hour | 0.75 (8.3) | 0.72 (17.9) | 15.3 | 10.48 (7.0) L/hour | 11.06 (2.9) L | 6.43 (3.6) L | 10.45 (6.8) L/hour | 7.02 (2.0) L/hour | 0.75 (8.3) | 15.3 (14.1) CV% | safety and tolerability [3]: safe and well tolerated; fAUC0-24 hours/MIC required to achieve 2-log kill [4]: ≥ 7.5; AUC0-24 hours target [5]: 76.9 µM·h
